The target of assay [1] is T1, recombinant human ALK5 (TGF-βR1) protein (Homo sapiens, UniProt P36897).
T1 construct: purchased Life Technologies PR9075A
T1 sequence (P36897 34-503): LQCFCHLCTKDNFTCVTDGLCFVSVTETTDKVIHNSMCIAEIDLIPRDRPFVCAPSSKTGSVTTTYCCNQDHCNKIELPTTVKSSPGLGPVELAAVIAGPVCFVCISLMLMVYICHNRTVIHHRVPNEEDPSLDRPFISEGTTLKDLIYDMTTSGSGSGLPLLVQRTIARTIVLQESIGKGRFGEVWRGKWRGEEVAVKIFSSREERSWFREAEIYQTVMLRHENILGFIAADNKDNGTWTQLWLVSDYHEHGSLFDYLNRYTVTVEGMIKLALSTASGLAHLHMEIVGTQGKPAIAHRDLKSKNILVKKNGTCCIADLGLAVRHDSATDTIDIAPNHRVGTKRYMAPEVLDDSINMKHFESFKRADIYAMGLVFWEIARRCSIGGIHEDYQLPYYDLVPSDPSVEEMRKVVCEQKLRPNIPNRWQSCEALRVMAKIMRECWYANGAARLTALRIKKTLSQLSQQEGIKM
In words: Biochemical ALK5 (TGF-βR1) assay to measure pKi (LANCE Ultra ULight kinase assay). The following applies: apparent pKi from pIC50 by Cheng-Prusoff, read-out: ALK5 pKi (converted). The procedure, abridged:
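After a 60 min room-temperature preincubation of ALK5 with compound, phosphorylation proceeds 60 min at 37 °C on ATP addition (125 μM as 5× stock). Detection: Eu-labelled phospho-Thr1342 Topo IIα antibody in EDTA buffer, pH 7.0; emission 665 nm.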

The test system of assay [2] is TGF-β-stimulated SMAD3 phosphorylation in BEAS-2B cells. In words: Cellular ALK5 potency assay, inhibition of TGF-β stimulated pSMAD3 formation in BEAS-2B cells. It counts as cell-based. As to conditions: Homo sapiens; inhibition of TGF-β stimulated pSMAD3 formation, BEAS-2B cells; read-out: BEAS2B pIC50 (converted). In short, it runs like this: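 Potency is reported as pIC50, derived from concentration-dependent reduction of pSMAD3 AlphaLISA signal against TGF-β-stimulated cells without compound. BEAS-2B cells received compound for 1 h before a 30-min stimulation with 10 ng/mL TGF-β.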

Molecules are shown by their SMILES.

Take `Cc1cccc(-c2[nH]cnc2-c2ccc3ncc(-c4cccc(C(=O)OC5CNC5)c4)cc3c2)n1` [Compound 197, azetidin-3-yl 3-[6-[5-(6-methyl-2-pyridyl)-1H-imidazol-4-yl]-3-quinolyl]benzoate]: in assay [1], the Ki is 0.0398 to 0.316 nM. For the same compound, the IC50 in assay [2] was 25.1 to 158 nM.
Turning to `Cc1cccc(-c2n[nH]cc2-c2ccc3ncc(-c4ccnnc4)cc3n2)n1` [Compound 215, 2-[3-(6-methyl-2-pyridyl)-1H-pyrazol-4-yl]-7-pyridazin-4-yl-1,5-naphthyridine], the Ki in assay [1] is less than 0.0316 nM. Further, the IC50 in assay [2] was less than 20 nM.
In the same order, the values of `Cc1cccc(-c2[nH]cnc2-c2ccc3ncc(C(=O)OCCN4CCCC4)cc3c2)n1` [Compound 737, 2-pyrrolidin-1-ylethyl 6-[5-(6-methyl-2-pyridyl)-1H-imidazol-4-yl]quinoline-3-carboxylate] are 0.398 to 3.16 nM and 25.1 to 158 nM.
With `Cc1cccc(-c2n[nH]cc2-c2ccc3ncc(-c4cccnc4O)cc3n2)n1` [Compound 585, 3-[6-[3-(6-methyl-2-pyridyl)-1H-pyrazol-4-yl]-1,5-naphthyridin-3-yl]pyridin-2-ol], the Ki in assay [1] is less than 0.0316 nM. Moreover, the IC50 in assay [2] is 25.1 to 158 nM.
For the compound `Cc1cccc(-c2n[nH]cc2-c2ccc3ncc(-c4cnn(CCN5CCCC5=O)c4)cc3n2)n1` [Compound 571, 1-[2-[4-[6-[3-(6-methyl-2-pyridyl)-1H-pyrazol-4-yl]-1,5-naphthyridin-3-yl]pyrazol-1-yl]ethyl]pyrrolidin-2-one], the Ki in assay [1] is less than 0.0316 nM. Further, in assay [2], the IC50 was 25.1 to 158 nM.
Regarding `Cc1cccc(-c2n[nH]cc2-c2ccc3ncc(N4CCC(O)CC4)cc3n2)n1` [Compound 282, 1-[6-[3-(6-methyl-2-pyridyl)-1H-pyrazol-4-yl]-1,5-naphthyridin-3-yl]piperidin-4-ol], the Ki in assay [1] is less than 0.0316 nM. Moreover, the IC50 in assay [2] is less than 20 nM.
The matching figures for `Cc1cccc(-c2n[nH]cc2-c2ccc3ncc(NCCN4CCN(C)CC4)cc3n2)n1` [Compound 619, N-[2-(4-methylpiperazin-1-yl)ethyl]-6-[3-(6-methyl-2-pyridyl)-1H-pyrazol-4-yl]-1,5-naphthyridin-3-amine]: 0.0398 to 0.316 nM and 25.1 to 158 nM.
Turning to `CNCCn1cc(-c2cnc3ccc(-c4c(-c5cccc(C)n5)[nH]c5ncccc45)cc3c2)cn1` [Compound 306, N-methyl-2-(4-(6-(2-(6-methylpyridin-2-yl)-1H-pyrrolo[2,3-b]pyridin-3-yl)quinolin-3-yl)-1H-pyrazol-1-yl)ethan-1-amine], the Ki in assay [1] is less than 0.0316 nM. In assay [2], the IC50 was 25.1 to 158 nM.
Consider `Cc1nc(-c2n[nH]cc2-c2ccc3ncc(NCCN4CCCC4(C)C)cc3n2)ccc1F` [Compound 526, N-(2-(2,2-dimethylpyrrolidin-1-yl)ethyl)-6-(3-(5-fluoro-6-methylpyridin-2-yl)-1H-pyrazol-4-yl)-1,5-naphthyridin-3-amine], for which the Ki in assay [1] was less than 0.0316 nM. The IC50 in assay [2] was 25.1 to 158 nM.
As for `Cc1cccc(-c2n[nH]cc2-c2ccc3ncc(N4CCn5nc(C6=CCNC6)nc5C4)cc3n2)n1` [Compound 362, 7-[2-(2,5-dihydro-1H-pyrrol-3-yl)-6,8-dihydro-5H-[1,2,4]triazolo[1,5-a]pyrazin-7-yl]-2-[3-(6-methyl-2-pyridyl)-1H-pyrazol-4-yl]-1,5-naphthyridine], the Ki in assay [1] is 0.0398 to 0.316 nM. Besides, the IC50 in assay [2] was 200 to 1260 nM.
`Cc1cccc(-c2n[nH]cc2-c2ccc3ncc(N4CC[C@@H](N5CCCCC5)C4)cc3n2)n1` [Compound 542, 2-[3-(6-methyl-2-pyridyl)-1H-pyrazol-4-yl]-7-[(3R)-3-(1-piperidyl)pyrrolidin-1-yl]-1,5-naphthyridine]: the Ki in assay [1] was less than 0.0316 nM. For the same compound, in assay [2], the IC50 is 25.1 to 158 nM.
With `Cc1cccc(-c2n[nH]cc2-c2ccc3ncc(N(C)C)cc3n2)n1` [Compound 59, N,N-dimethyl-6-[3-(6-methyl-2-pyridyl)-1H-pyrazol-4-yl]-1,5-naphthyridin-3-amine], in assay [1], the Ki is 0.0398 to 0.316 nM. The IC50 in assay [2] is less than 20 nM.
Regarding `Cc1cccc(-c2[nH]ncc2-c2ccc3ncc(C(=O)OCCN4CCC[C@@H](N)C4)cc3c2)n1` [Compound 1241, 2-[(3R)-3-amino-1-piperidyl]ethyl 6-[5-(6-methyl-2-pyridyl)-1H-pyrazol-4-yl]quinoline-3-carboxylate], the Ki in assay [1] was 0.0398 to 0.316 nM. The IC50 in assay [2] was 25.1 to 158 nM.
Consider `Cc1cccc(-c2n[nH]cc2-c2ccc3ncc(NCC4CNC4)cc3n2)n1` [Compound 431, N-(azetidin-3-ylmethyl)-6-[3-(6-methyl-2-pyridyl)-1H-pyrazol-4-yl]-1,5-naphthyridin-3-amine], for which the Ki in assay [1] was 0.0398 to 0.316 nM. For the same compound, in assay [2], the IC50 was 1580 to 10000 nM.
The matching figures for `Cc1cccc(-c2n[nH]cc2-c2ccc3ncc(-c4ccc(O)nc4)cc3n2)n1` [Compound 374, 5-[6-[3-(6-methyl-2-pyridyl)-1H-pyrazol-4-yl]-1,5-naphthyridin-3-yl]pyridin-2-ol]: less than 0.0316 nM and 25.1 to 158 nM.
On to `Cc1cccc(-c2n[nH]cc2-c2ccc3ncc(C4=CCC(N)CC4)cc3n2)n1` (stereo not drawn) [Compound 21, 4-[6-[3-(6-methyl-2-pyridyl)-1H-pyrazol-4-yl]-1,5-naphthyridin-3-yl]cyclohex-3-en-1-amine], for which the Ki in assay [1] was less than 0.0316 nM. For the same compound, in assay [2], the IC50 is 25.1 to 158 nM.
In the same order, the values of `Cc1cccc(-c2[nH]cnc2-c2ccc3ncc(-c4ccnc(C(=O)OCCN5CCNCC5)c4)cc3c2)n1` [Compound 1099, 2-piperazin-1-ylethyl 4-[6-[5-(6-methyl-2-pyridyl)-1H-imidazol-4-yl]-3-quinolyl]pyridine-2-carboxylate] are 0.0398 to 0.316 nM and 200 to 1260 nM.
As for `Cc1cccc(-c2[nH]cnc2-c2ccc3ncc(Nc4ccc(N5CCN(C)CC5)cn4)cc3n2)n1` [Compound 653, N-(5-(4-methylpiperazin-1-yl)pyridin-2-yl)-6-(5-(6-methylpyridin-2-yl)-1H imidazol-4-yl)-1,5-naphthyridin-3-amine], the Ki in assay [1] was 0.0398 to 0.316 nM. In assay [2], the IC50 was 25.1 to 158 nM.
Take `Cc1cccc(-c2[nH]ncc2-c2ccc3ncc(C(=O)OCCC4CCNCC4)cc3c2)n1` [Compound 1255, 2-(4-piperidyl)ethyl 6-[5-(6-methyl-2-pyridyl)-1H-pyrazol-4-yl]quinoline-3-carboxylate]: the Ki in assay [1] is 0.0398 to 0.316 nM. Besides, in assay [2], the IC50 is 25.1 to 158 nM.
Regarding `Cc1cccc(-c2[nH]cnc2-c2ccc3ncc(-c4nc(C(=O)OCCN5CCC[C@@H](N)C5)cs4)cc3c2)n1` [Compound 1252, 2-[(3R)-3-amino-1-piperidyl]ethyl 2-[6-[5-(6-methyl-2-pyridyl)-1H-imidazol-4-yl]-3-quinolyl]thiazole-4-carboxylate], the Ki in assay [1] was 0.0398 to 0.316 nM. In addition, the IC50 in assay [2] is 25.1 to 158 nM.
Take `Cc1nc(-c2nc3ccccn3c2-c2ccc3ncc(-c4nc5n(n4)CCNC5)cc3n2)ccc1F` [Compound 447, 2-[2-(5-fluoro-6-methyl-2-pyridyl)imidazo[1,2-a]pyridin-3-yl]-7-(5,6,7,8-tetrahydro-[1,2,4]triazolo[1,5-a]pyrazin-2-yl)-1,5-naphthyridine]: the Ki in assay [1] was 0.0398 to 0.316 nM. The IC50 in assay [2] was 25.1 to 158 nM.
On to `Cc1cccc(-c2[nH]cnc2-c2ccc3ncc(C(=O)OCCC4CNC4)cc3c2)n1` [Compound 761, 2-(azetidin-3-yl)ethyl 6-[5-(6-methyl-2-pyridyl)-1H-imidazol-4-yl]quinoline-3-carboxylate], for which, in assay [1], the Ki is 0.0398 to 0.316 nM. For the same compound, in assay [2], the IC50 was 200 to 1260 nM.
Regarding `Cc1cccc(-c2[nH]cnc2-c2ccc3ncc(NC4CCNC4)cc3c2)n1` (stereo not drawn) [Compound 184, 6-[5-(6-methyl-2-pyridyl)-1H-imidazol-4-yl]-N-pyrrolidin-3-yl-quinolin-3-amine], the Ki in assay [1] is 0.0398 to 0.316 nM. The IC50 in assay [2] was 25.1 to 158 nM.
With `Cc1cccc(-c2[nH]ncc2-c2ccc3nccc(C(=O)O)c3c2)n1` [Compound 1064, 6-[5-(6-methyl-2-pyridyl)-1H-pyrazol-4-yl]quinoline-4-carboxylic acid], the Ki in assay [1] is 3.98 to 31.6 nM. Moreover, the IC50 in assay [2] is 1580 to 10000 nM.
In the same order, the values of `Cc1cccc(-c2[nH]ncc2-c2ccc3ncc(C(=O)OCCCCN4CCCC4)cc3n2)n1` [Compound 146, 4-pyrrolidin-1-ylbutyl 6-[5-(6-methyl-2-pyridyl)-1H-pyrazol-4-yl]-1,5-naphthyridine-3-carboxylate] are 0.0398 to 0.316 nM and 25.1 to 158 nM.
`Cc1cccc(-c2n[nH]cc2-c2ccc3ncc(-c4cncc(N)n4)cc3n2)n1` [Compound 235, 6-[6-[3-(6-methyl-2-pyridyl)-1H-pyrazol-4-yl]-1,5-naphthyridin-3-yl]pyrazin-2-amine]: the Ki in assay [1] is 0.0398 to 0.316 nM. The IC50 in assay [2] is 25.1 to 158 nM.
In the same order, the values of `Cc1cccc(-c2n[nH]cc2-c2ccc3ncc(-c4ncco4)cc3n2)n1` [Compound 72, 2-[6-[3-(6-methyl-2-pyridyl)-1H-pyrazol-4-yl]-1,5-naphthyridin-3-yl]oxazole] are 0.0398 to 0.316 nM and 25.1 to 158 nM.

Values taken from patent publication US11590116B2 (THERAVANCE BIOPHARMA R&D IP, LLC, priority 2019, dated 2023).
